Experimental data taken from US8580919B2, “Polymer conjugates of GLP-1” (Nektar Therapeutics, priority 2005, dated 2013).
Ends that are not written are not given here.

What was measured:
diabetic db/db mice = assay: In-vivo study of blood-glucose lowering effects, subcutaneous dose, diabetic db/db mice (Example 8); design: species or system mouse; details: for blood glucose-lowering effect: single SC dose, FIG. 13
Procedure: Male diabetic mice (BKS.Cg-+Lepr db/+Lepr db/01aHsd) were purchased from Harlan Laboratories, Ltd. (Jerusalem, Israel). The 8-9 week old animals (30-40 gm) were placed in mouse cages (two animals per cage), and allowed at least 48 hours of acclimatization before the start of the study.
The study was divided into two phases: a feasibility phase and an evaluation phase.
In carrying out the feasibility phase, several groups of mice were used wherein four mice were used in each group. Data on the baseline glucose levels were gathered for each mouse for 2-3 days prior to drug dosing. This was performed to identify any outliers in the group of animals. On the day of treatment (Day 0) each animal was weighed. A time 0 day blood sample (5 to 10 μL) was collected from the tail vein. The glucose level (mg/dL) was measured using a glucose analyzer. Each animal was then dosed subcutaneously (SC) below the skin on the back. […] The animals were then allowed to return into their cages. Blood samples of 5 to 10 μL (<0.5% of 2 mL blood volume for a 35 g mouse) were removed through a needle prick/capillary tube at the following time points: −3, −2, −1, 0, 0.04, 0.16, 0.33, 1.0, 1.16 days. Each collected blood sample was tested for its glucose level. At the end of the study, the animals were humanely euthanized by carbon-dioxide asphyxiation.
In carrying out the evaluation phase, eight mice were used in each group. Data on the baseline glucose levels were gathered for each mouse three days prior to drug dosing. On the day of treatment (Day 0) each animal was weighed. A time 0 day blood sample (5 to 10 μL) was collected from the tail vein. The glucose level (mg/dL) was measured using a glucose analyzer. Each animal was then dosed subcutaneously (SC) below the skin on the back. […] The animals were then allowed to return into their cages. Blood samples of 5 to 10 μL (<0.5% of 2 mL blood volume for a 35 g mouse) were removed through a needle prick/capillary tube at the following time points: −3, −2, −1, 0, 0.04, 0.16, 0.33, 0.5, 1, 2, 3, 6 days. Each collected blood sample was for its glucose level. […]

[1] = Lability of the conjugate on attempted further purification (Example 23); assay type: physicochemical; details: when attempting to further purify the conjugate
Source text: The conjugate rapidly hydrolyzed to native GLP-1 and a GLP-1 derivative resulting from an intramolecular ring closure reaction due to reaction at the carbamate carbonyl by the imidazolyl nitrogen of the N-terminal histidine of GLP-1. The modified GLP-1 thereby released is shown below. Further purification was not pursued.

What does the source list for “G2PEG2Fmoc40K-Lys-GLP-1: G2PEG2Fmoc40k-NHS covalently and releasably attached to a lysine position of GLP-1 (HAEGTFTSDVSSYLEGQAAKEFIAWLVKGRG; also: releasable G2PEG2Fmoc 40 kDa PEG on a lysine, position not given here; UniProt P01275 98-128, looked up)”?
PD effect of 40 kilodalton PEG conjugate compared to 20 kilodalton PEG conjugate (diabetic db/db mice; SC 420 μg): small but extended PD effect; blood glucose-lowering effect (diabetic db/db mice): confirmed

Which blood glucose-lowering effect (diabetic db/db mice) does the source give for “G2PEG2Fmoc20K-Lys-GLP-1: G2PEG2Fmoc20k-NHS covalently and releasably attached to a lysine position of GLP-1 (HAEGTFTSDVSSYLEGQAAKEFIAWLVKGRG; also: releasable G2PEG2Fmoc 20 kDa PEG on a lysine, position not given here; UniProt P01275 98-128, looked up)” here?
Its blood glucose-lowering effect is “confirmed”.

Which “stability of the conjugate” value [1] does the source give for “N-terminal GLP-1 conjugate prepared by reaction with an mPEG-SBC reagent: counterpart N-terminal GLP-1 conjugate prepared by reaction with an mPEG-SBC reagent” here?
The value was “extremely labile”.
